The text below walks through data of BindingDB's records for doi:10.7270/Q2ZC817P (The Scripps Research Institute Molecular Screening Center, 2007).

SMILES strings stand for the structures. Structures can show the parent of a compound that is named as a salt.

Sphingosine 1-phosphate receptor 1, sequence (P21453 whole entry): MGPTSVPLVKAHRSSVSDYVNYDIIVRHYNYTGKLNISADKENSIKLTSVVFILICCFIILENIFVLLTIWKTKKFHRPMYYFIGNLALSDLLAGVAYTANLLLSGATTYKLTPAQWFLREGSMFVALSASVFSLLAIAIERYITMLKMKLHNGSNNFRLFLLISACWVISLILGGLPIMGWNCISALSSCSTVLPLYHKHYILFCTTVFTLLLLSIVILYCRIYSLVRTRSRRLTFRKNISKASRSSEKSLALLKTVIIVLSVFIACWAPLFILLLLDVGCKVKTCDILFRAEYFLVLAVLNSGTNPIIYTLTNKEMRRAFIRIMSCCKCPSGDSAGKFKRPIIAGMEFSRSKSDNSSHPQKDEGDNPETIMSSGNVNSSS

One assay addresses Sphingosine 1-phosphate receptor 1 (Homo sapiens, UniProt P21453). In words: S1P1 agonism potentiation – cell-based, potentiator mode, 60K MLSMR set, dose response (AID 466).
Settings: not given
Regarding `CCN=c1scc(-c2ccc3c(c2)NC(=O)CO3)n1N=C1CCCC1` [MLS000054638], the EC50 (as a rule, the concentration needed to bring the measured effect to its halfway point) was 7.16 µM.

For `CCOc1ccc(C(=O)Nc2c(C(N)=O)oc3ccccc23)cc1` [3-[(4-ethoxybenzoyl)amino]-1-benzofuran-2-carboxamide], the EC50 is 3.67 µM.

On to `CN=C(NC#N)SCC(=O)c1ccc(Cl)cc1Cl` [[2-(2,4-dichlorophenyl)-2-oxidanylidene-ethyl] N-cyano-N'-methyl-carbamimidothioate], for which the EC50 turned out to be 4.32 µM.

Turning to `COc1ccc(NC(=O)c2cnn3c(C(F)(F)F)cc(-c4ccco4)nc23)cc1OC` [MLS000109325], the EC50 was over 95 µM.

In the case of `CN(C)CC(C(=O)c1ccccc1)c1ccccc1` (centres undefined) [3-(dimethylamino)-1,2-diphenyl-1-propanone;hydrochloride], the EC50 turned out to be 12 µM.

`CC1=NC(=O)NC(c2ccc(Cl)cc2)C1C(=O)OCc1ccc2c(c1)OCO2` (centres undefined) [1,3-benzodioxol-5-ylmethyl 4-(4-chlorophenyl)-6-methyl-2-oxidanylidene-3,4-dihydro-1H-pyrimidine-5-carboxylate]: the EC50 is over 0.3 µM.

For `COc1ccccc1Oc1ccc2c(c1)C(=O)N(c1ccc(O)cc1)C2=O` [2-(4-hydroxyphenyl)-5-(2-methoxyphenoxy)isoindole-1,3-dione], the EC50 worked out at 0.151 µM.

Still in this assay, the particulars now being: inactive by the depositor's call.
For `CC/N=c1\sc(C(=O)NCCc2ccccc2)cc(=O)n1CC` [3-Ethyl-2-[(Z)-ethylimino]-4-oxo-3,4-dihydro-2H-[1,3]thiazine-6-carboxylic acid phenethyl-amide], the EC50 came to 23.1 µM.

For `CCCCOc1ccc(S(=O)(=O)Nc2cc(OC)ccc2OC)cc1` [4-butoxy-N-(2,5-dimethoxyphenyl)benzenesulfonamide], the EC50 is 12.1 µM.
